Laboratory results from patent publication US7169567B1, “Screening assay utilizing the PTH receptor” (The General Hospital Corporation, priority 1998, dated 2007).
Where no end group is shown, it is not given here.

Biological target: T1, human PTH-1 receptor (Homo sapiens, UniProt Q03431)
T1 construct: expressed in transfected cells; host or cells: HKRK-B7 (LLC-PK1 stably transfected, pCDNA-1-based plasmid)
T1 sequence (Q03431 27-593): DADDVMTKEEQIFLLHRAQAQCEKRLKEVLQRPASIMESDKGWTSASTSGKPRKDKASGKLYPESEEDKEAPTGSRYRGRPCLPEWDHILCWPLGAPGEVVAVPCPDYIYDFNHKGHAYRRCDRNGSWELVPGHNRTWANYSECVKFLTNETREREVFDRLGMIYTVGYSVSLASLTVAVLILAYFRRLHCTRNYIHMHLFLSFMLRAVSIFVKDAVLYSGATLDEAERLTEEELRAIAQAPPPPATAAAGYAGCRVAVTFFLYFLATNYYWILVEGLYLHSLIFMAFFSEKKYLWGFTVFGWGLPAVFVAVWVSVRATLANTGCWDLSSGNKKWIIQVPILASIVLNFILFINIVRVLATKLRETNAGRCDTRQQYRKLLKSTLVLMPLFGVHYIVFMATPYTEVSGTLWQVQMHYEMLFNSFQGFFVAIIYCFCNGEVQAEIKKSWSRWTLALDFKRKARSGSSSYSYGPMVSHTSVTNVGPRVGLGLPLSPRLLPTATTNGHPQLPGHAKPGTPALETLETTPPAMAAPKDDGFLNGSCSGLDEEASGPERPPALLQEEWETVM
Assay: cAMP-stimulating activity in HKRK-B7 cells (LLC-PK1 stably transfected with human PTH-1 receptor), RIA
Assay type: cell-based
Set-up: maximum cAMP response: dose or concentration left out as unconfirmed
Details: for increase in intracellular cAMP levels relative to the basal cAMP level: 60 min at 22° C.
Protocol: FIG. 2. cAMP-stimulating Activity of PTH Fragments in LLC-PK1 Cells. A) Rat PTH(1–34) analog or amino-terminal rPTH fragments were tested for cAMP-stimulating activity in an LLC-P1-derived cell line (HKRK-B7) stably transfected with the human PTH-1 receptor. Cells were treated with peptide at the indicated doses for 60 min at 22° C. Intracellular cAMP was measured by RIA, as described in Experimental Procedures. Shown are combined data (mean±s.e.m.) from 3 separate experiments, each performed in duplicate. B) HKRK-B7 cells, or untransfected LLC-PK1 were treated with rPTH(1–34) or rPTH(1–14), and intracellular cAMP was measured. Shown are data (mean±s.e.m.) from a single representative experiment performed in duplicate.
FIG. 3. Alanine-scan of PTH(1–14). HKRK-B7 cells were treated with 100 mM of one of 14 different rPTH(1–14) analogs, each having a different alanine-substitution at the indicated amino acid position. The resulting cAMP levels were determined as described in Experimental Procedures. Shown are the combined data (mean±s.e.m.) from three separate experiments, each performed in duplicate. The mean (mean±s.e.m.) basal cAMP levels observed in the three experiments was 2.1±0.1 pmole/well, and the maximum response to rPTH(1–34) at 0.1 mM was 254±16 pmole/well.
Cell Culture and DNA Transfection: COS-7 and HKRK-B7 cells were cultured at 37° C. in Dulbecco's modified Eagle's medium (DMEM) supplemented with fetal bovine serum (10%); penicillin G (20 units/ml), streptomycin sulfate (20 μg/ml) and amphotericin B (0.05 μg/ml) in a humidified atmosphere containing 5% CO2. Twenty-four to 16 hours prior to assay, cells in 24-well plates were shifted to a humidified incubator containing 5% CO2 that was set at 33° C. Stock solutions of EGTA/trypsin and antibiotics were from GIBCO; fetal bovine serum was from Hyclone Laboratories (Logan, Utah). Derivation and characterization of the HKRK-B7 cell line by stable transfection of LLC-PK1 cells with a pCDNA-1-based plasmid (In Vitrogen, San Diego, Calif.) encoding the hPTH-1 receptor was described previously (Takasu, H. and Bringhurst, F., Endocrinology, in press (1998)). These cells express PTH-1 receptors at a surface density of about 1×10^6 PTH-binding sites per cell. The HKRK-B7 cells were used for functional assays 24 to 72 hours after the cell monolayer reached confluency.
Intracellular cyclic AMP: Transfected COS-7 or HKRK-B7 cells were rinsed with 500 ml of binding buffer, (50 mM Tris-HCl, pH 7.7, 100 mM NaCl, 5 mM KCl, 2 mM CaC12, 5% heat-inactivated horse serum, 0.5% heat-inactivated fetal bovine serum) and 200 ml of IBMX buffer (DMEM containing 2 mM IBMX, 1 mg/ml bovine serum albumin, 35 mM Hepes-NaOH, pH 7.4) and […] of binding buffer or binding buffer containing various amounts of peptide were added. The plates were incubated for 60 minutes at room temperature. The buffer was then withdrawn and the cells were frozen on dry ice, treated with 0.5 ml of 50 mM HCl, and refrozen. After the thawing, the lysate was diluted 30-fold in dH20 and an aliquot was analyzed for cAMP content by determined radioimmunoassay using unlabeled cAMP as a standard.
Amino-terminal peptide fragments based on the rat PTH sequence and ranging in length from PTH(1–9) to PTH(1–15) were synthesized and tested for activity in an LLC-PK1-derived cell line called HKRK-B7 which stably expresses high levels (1×10^6 receptors/cell) of the cloned human PTH-1 receptor (Takasu, H. and Bringhurst, F., Endocrinology, in press (1998)).

Compound | EC50 [nM] | increase in intracellular cAMP levels relative to the basal cAMP level (HKRK-B7 cells) | maximum cAMP response (HKRK-B7 cells, mean±s.e.m. of three experiments, basal 2.1±0.1 pmole/well) [pmole/well] | doses required for cAMP activation compared with the dose required for PTH(1–34) (HKRK-B7 cells) | potency relative to PTH(1–34) with the intact receptor (intact receptor)
CCCC[C@H](NC(=O)[C@H](CCCNC(=N)N)NC(=O)[C@H](CCC(=O)O)NC(=O)[C@@H](NC(=O)[C@H](CO)NC(=O)[C@H](C)NC(=O)[C@H](CC(C)C)NC(=O)[C@H](Cc1c[nH]cn1)NC(=O)[C@H](CCCCN)NC(=O)CNC(=O)[C@H](CC(C)C)NC(=O)[C@H](CC(N)=O)NC(=O)[C@H](Cc1c[nH]cn1)NC(=O)[C@H](CCCC)NC(=O)[C@H](CC(C)C)NC(=O)[C@H](CCC(N)=O)NC(=O)[C@@H](NC(=O)[C@H](CCC(=O)O)NC(=O)[C@H](CO)NC(=O)[C@@H](NC(=O)[C@H](C)N)C(C)C)[C@@H](C)CC)C(C)C)C(=O)N[C@@H](CCC(N)=O)C(=O)N[C@@H](Cc1c[nH]c2ccccc12)C(=O)N[C@@H](CC(C)C)C(=O)N[C@@H](CCCNC(=N)N)C(=O)N[C@@H](CCCCN)C(=O)N[C@@H](CCCCN)C(=O)N[C@@H](CC(C)C)C(=O)N[C@@H](CCC(N)=O)C(=O)N[C@@H](CC(=O)O)C(=O)N[C@H](C(=O)N[C@@H](Cc1c[nH]cn1)C(=O)N[C@@H](CC(N)=O)C(=O)N[C@@H](Cc1ccc(O)cc1)C(N)=O)C(C)C [PTH(1–34), [Nle^8,21,Tyr^34]rPTH-(1–34)NH2] | ~2 | 50 fold | 254±16 | – | –
PTH(1–14): Amino-terminal peptide fragment based on the rat PTH sequence, residues 1–14, C-terminally amidated (AVSEIQLMHNLGKH-NH2) | – | about 20 fold | – | five to six orders of magnitude higher | about five orders of magnitude weaker
